These results are taken from BindingDB's records for doi:10.1021/cb500018s (Johns Hopkins University, 2014).

Structures can show the parent of a compound that is named as a salt.

The first experiment concerns the target Lysine-specific histone demethylase 1A (Homo sapiens, UniProt O60341). Briefly: GST-LSD1 Enzymatic Assays. As to conditions: pH 7.5.
Description: The reaction mixture contained 50 mM HEPES (pH 7.5), 0.1 mM 4-aminoantipyrine, 1 mM 3,5-dichloro-2-hydroxybenzenesulfonic acid, 0.04 mg/mL horseradish peroxidase, and appropriate concentration of buffered substrate (dimethyl-Lys-4- H3-21, ARTKme2[sequence]).
On to `CS(=O)(=O)Oc1ccccc1CCC(=O)Nc1ccc(CCNN)cc1` [2-(3-{[4-(2-Hydrazinylethyl)phenyl]amino}-3-oxopropyl)phenyl methanesulfonate oxalate salt (12j)], for which the affinity, expressed as Ki, was 204 nM.

`CS(=O)(=O)Oc1cccc(CCC(=O)Nc2ccc(CCNN)cc2)c1` [3-(3-{[4-(2-Hydrazinylethyl)phenyl]amino}-3-oxopropyl)phenyl methanesulfonate oxalate salt (12k)] gave a Ki of 223 nM.

`NNCCc1ccc(NC(=O)CCCc2ccc(Cl)cc2)cc1` [4-(4-Chlorophenyl)-N-[4-(2-hydrazinylethyl)phenyl]butanamide sulfate salt (12f)] showed an inhibitory constant (Ki) of 156 nM.

`NNCCOc1ccccc1` [(2-Phenoxyethyl)hydrazine dihydrochloride salt (10a)] had a Ki of 44000 nM.

Turning to `NNCCc1ccc(NC(=O)/C=C/c2ccccc2)cc1` [(2E)-N-[4-(2-Hydrazinylethyl)phenyl]-3-phenylprop-2-enamide sulfate salt (13)], the Ki came out at 100 nM.

The compound `NNCCCOc1ccccc1` [(3-Phenoxypropyl)hydrazine dihydrochloride salt (10b)] registered a Ki of 12000 nM.

For `NNCCCc1ccccc1` [(3-Phenylpropyl)hydrazine dihydrochloride salt (9c)], affinity was put at a Ki of 5000 nM.

Take `NNCCCCc1ccccc1` [(4-Phenylbutyl)hydrazine dihydrochloride salt (9h)]: the affinity, expressed as Ki, was 22000 nM.

In turn, `NNCCc1ccc(N(Cc2ccccc2)C(=O)CCCc2ccccc2)cc1` [N-Benzyl-N-[4-(2-hydrazinylethyl)phenyl]-4-phenylbutanamide oxalate salt (12m)] showed a Ki of 1600 nM.

With `NNCCc1ccc(NC(=O)Cc2ccccc2)cc1` [N-[4-(2-Hydrazinylethyl)phenyl]-2-phenylacetamide dihydrochloride salt (12b)], the Ki was 370 nM.

`NNCCc1ccc(NC(=O)CCc2c[nH]c3ccccc23)cc1` [N-[4-(2-Hydrazinylethyl)phenyl]-3-(1H-indol-3-yl)propanamide sulfate salt (15a)] displayed a Ki of 210 nM.

Take `NNCCc1ccc(NC(=O)CCc2ccccc2)cc1` [N-[4-(2-Hydrazinylethyl)phenyl]-3-phenylpropanamide sulfate salt (12c)]: the Ki came out at 260 nM.

In turn, `COc1ccc(CCCC(=O)Nc2ccc(CCNN)cc2)cc1` [N-[4-(2-Hydrazinylethyl)phenyl]-4-(4-methoxyphenyl)butanamide sulfate salt (12h)] had a Ki of 207 nM.

Compound `NNCCc1ccc(NC(=O)CCCc2ccc([N+](=O)[O-])cc2)cc1` [N-[4-(2-Hydrazinylethyl)phenyl]-4-(4-nitrophenyl)butanamide sulfate salt (12i)] displayed a Ki of 282 nM.

As to `NNCCc1ccc(NC(=O)CCCCc2ccccc2)cc1` [N-[4-(2-Hydrazinylethyl)phenyl]-5-phenylpentanamide oxalate salt (12e)], the affinity corresponds to a Ki of 260 nM.

Turning to `CN(C(=O)CCCc1ccccc1)c1ccc(CCNN)cc1` [N-[4-(2-Hydrazinylethyl)phenyl]-N-methyl-4-phenylbutanamide oxalate salt (12l)], the affinity corresponds to a Ki of 2000 nM.

Compound `NNCCc1ccc(NC(=O)c2ccccc2)cc1` [N-[4-(2-Hydrazinylethyl)phenyl]benzamide dihydrochloride salt (12a)] showed a Ki of 280 nM.

`COc1ccc(CCCNN)cc1` [[3-(4-Methoxyphenyl)propyl]hydrazine dihydrochloride salt (9e)] displayed a Ki of 8000 nM.

`NNCCCc1ccc(OCc2ccccc2)cc1` [{3-[4-(Benxyloxy)phenyl]propyl}hydrazine dihydrochloride salt (14)] had a Ki of 900 nM.

The target of a further experiment is T1, Amine oxidase [flavin-containing] A (Homo sapiens, UniProt P21397).
T1 sequence (P21397 whole entry): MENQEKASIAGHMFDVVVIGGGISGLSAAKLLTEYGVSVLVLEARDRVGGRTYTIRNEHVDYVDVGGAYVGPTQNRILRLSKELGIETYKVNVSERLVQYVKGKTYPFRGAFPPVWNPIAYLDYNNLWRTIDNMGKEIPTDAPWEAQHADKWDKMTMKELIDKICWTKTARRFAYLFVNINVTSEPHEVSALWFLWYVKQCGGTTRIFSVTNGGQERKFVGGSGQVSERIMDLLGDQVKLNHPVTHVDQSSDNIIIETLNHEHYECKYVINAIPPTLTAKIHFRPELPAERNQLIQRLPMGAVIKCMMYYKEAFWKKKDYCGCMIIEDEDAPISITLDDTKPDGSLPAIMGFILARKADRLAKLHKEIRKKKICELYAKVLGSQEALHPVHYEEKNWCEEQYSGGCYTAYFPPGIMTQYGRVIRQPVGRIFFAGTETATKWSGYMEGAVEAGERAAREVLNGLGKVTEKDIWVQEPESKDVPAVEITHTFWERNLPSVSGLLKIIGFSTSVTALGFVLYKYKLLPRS
Briefly: MAO-A/B Activity and Inhibition Assay. As to conditions: pH 7.5.
Description: (§1) The reaction mixtures contained 50 mM HEPES (pH 7.5), 0.1 mM 4-aminoantipyrine, 1 mM 3,5-dichloro-2-hydroxybenzenesulfonic acid, 0.04 mg/mL horseradish peroxidase, and appropriate concentration of buffered substrate (tyramine).
`NNCCc1ccc(NC(=O)CCCc2ccccc2)cc1` [N-[4-(2-Hydrazinylethyl)phenyl]-4-phenylbutanamide dihydrochloride salt (12d)]: the affinity corresponds to a Ki of 2600 nM.

A further experiment concerns the target T2, Amine oxidase [flavin-containing] B (Homo sapiens, UniProt P27338).
T2 sequence (P27338 whole entry): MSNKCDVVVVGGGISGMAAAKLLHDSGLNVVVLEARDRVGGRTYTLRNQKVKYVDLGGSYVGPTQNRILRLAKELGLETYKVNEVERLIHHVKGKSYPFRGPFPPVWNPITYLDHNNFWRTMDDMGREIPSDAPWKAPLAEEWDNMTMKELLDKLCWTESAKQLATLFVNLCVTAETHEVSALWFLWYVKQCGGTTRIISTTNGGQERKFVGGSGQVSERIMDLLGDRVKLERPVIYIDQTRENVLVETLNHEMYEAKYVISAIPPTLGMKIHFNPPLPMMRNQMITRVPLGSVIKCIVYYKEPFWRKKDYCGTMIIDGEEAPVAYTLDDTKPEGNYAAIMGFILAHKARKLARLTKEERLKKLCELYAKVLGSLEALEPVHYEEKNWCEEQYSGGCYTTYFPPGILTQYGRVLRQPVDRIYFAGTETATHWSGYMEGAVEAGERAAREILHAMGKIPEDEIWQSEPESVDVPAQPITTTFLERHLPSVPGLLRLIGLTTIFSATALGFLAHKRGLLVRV
Briefly: MAO-A/B Activity and Inhibition Assay. The note with it: pH 7.5.
Description: as §1
In turn, `NNCCc1ccc(NC(=O)CCCc2ccccc2)cc1` [N-[4-(2-Hydrazinylethyl)phenyl]-4-phenylbutanamide dihydrochloride salt (12d)] came in with a Ki of 6500 nM.

A word on the Ki: it is a measure of affinity in units of concentration, obtained from inhibition or displacement. A higher Ki goes with a looser hold on the target.
